Tested on: BaF3 V617F cells; UKE-1
Test: Proliferation Assay (Cell Titer-Glo; Example 7)
Type: cell-based
Details: proliferation 72 hours, inhibit JAK2 activity, cell line (BaF3 V617F or UKE-1) not stated
Description: BaF3 V617F cells are maintained and plated in RPMI with 10% FBS. Plating density for these cells is 1×10^5 cells/mL.
UKE-1 are maintained and plated in Iscove's DMEM containing 10% FBS, 10% equine serum, 1% penicillin/streptomycin and 1 uM hydrocortisone. Plating density for these cells is 0.4×10^6 cells/mL
The cells were resuspended in a corresponding medium at a required cell density (see above). 100μ of cell suspension was added to each well of a flat bottom 96 well white plate. The compound was serially diluted in DMSO from 5 mM in 3-fold dilutions, and then diluted 1:250 in the RPMI 1640 medium containing 5% FBS and pen/strep. 100 μL of resulting 2× compound solution was added per well in duplicate and the cells were allowed to proliferate for 72 hours at 37° C.
Proliferation was measured using Cell Titer-Glo. The substrate was thawed and allowed to come to room temperature. After removal of top 100 μL of medium from each well, 100 μL of the premixed Cell Titer-Glo reagent was added to each well. The plates were mixed on an orbital shaker for three minutes to induce lysis and incubated at ambient temperature for an additional five minutes to allow the signal to equilibrate. The Luminescence was read on the Wallac Plate Reader.
The results of the ability of the compounds of the invention to inhibit JAK2 activity, when tested in the above assay, are shown in the following Table XI wherein the level of activity (i.e., the IC50) for each compound is indicated in Table XI. The compound numbers in Table XI refers to the compounds disclosed herein as being prepared by the methods disclosed herein: […]

Compound | IC50
Cc1cnc(Nc2ccc(N3CCN(C4CC5CCC4C5)CC3)c(F)c2)nc1Nc1ccc(CNS(=O)(=O)C2CC2)cc1 (stereo not shown) [II-78, N-(4-(2-(4-(4-(bicyclo[2.2.1]heptan-2-yl)piperazin-1-yl)-3-fluorophenylamino)-5-methylpyrimidin-4-ylamino)benzyl)cyclopropanesulfonamide] | 371 nM
O=S(=O)(NCc1ccc(Nc2nc(Nc3ccc(N4CCN(C5CC6CCC5C6)CC4)c(F)c3)ncc2Cl)cc1)C1CC1 (stereo not shown) [II-79, N-(4-(2-(4-(4-(bicyclo[2.2.1]heptan-2-yl)piperazin-1-yl)-3-fluorophenylamino)-5-chloropyrimidin-4-ylamino)benzyl)cyclopropanesulfonamide] | 3160 nM
COc1c(C)cc(Nc2ncc(Cl)c(Nc3ccc(CNS(=O)(=O)C4CC4)cc3)n2)cc1Cl [II-80, 5-Chloro-N2-(3-chloro-4-methoxy-5-methylphenyl]-N4-[4-(N-cyclopropylsulfonylamino)methylphenyl]-2,4-pyrimidinediamine] | 188 nM
CCc1cnc(Nc2cc(C)c(OC)c(C)c2)nc1Nc1ccc(CNS(=O)(=O)C2CC2)cc1 [II-81, N4-[4-(N-Cyclopropylsulfonylamino)methylphenyl]-N2-(3,5-dimethyl-4-methoxyphenyl)-5-ethyl-2,4-pyrimidinediamine] | 1100 nM
CCc1cnc(Nc2cc(C)c(OC)c(OC)c2)nc1Nc1ccc(CNS(=O)(=O)C2CC2)cc1 [II-82, N4-[4-(N-Cyclopropylsulfonylamino)methylphenyl]-N2-(3,4-dimethoxy-5-methylphenyl)-5-ethyl-2,4-pyrimidinediamine] | 797 nM
CCc1cnc(Nc2cc(C)c(OC)c(Cl)c2)nc1Nc1ccc(CNS(=O)(=O)C2CC2)cc1 [II-83, N2-(3-Chloro-4-methoxy-5-methylphenyl)-N4-[4-(N-cyclopropylsulfonylamino)methylphenyl]-5-ethyl-2,4-pyrimidinediamine] | 1390 nM
CCc1cnc(Nc2cc(Cl)c(OC)c(Cl)c2)nc1Nc1ccc(CNS(=O)(=O)C2CC2)cc1 [II-84, N4-[4-(N-Cyclopropylsulfonylamino)methylphenyl]-N2-(3,5-dichloro-4-methoxyphenyl)-5-ethyl-2,4-pyrimidinediamine] | 38300 nM
CCc1cnc(Nc2cc(OC)c(OC)c(OC)c2)nc1Nc1ccc(CNS(=O)(=O)C2CC2)cc1 [II-85, N4-[4-(N-Cyclopropylsulfonylamino)methylphenyl]-5-ethyl-N2-(3-,4,5-trimethoxylphenyl)-2,4-pyrimidinediamine] | 2690 nM
CCc1cnc(Nc2ccc(N3CCN(C)CC3)cc2)nc1Nc1ccc(CNS(=O)(=O)C2CC2)cc1 [II-86, N4-[4-(N-Cyclopropylsulfonylamino)methylphenyl]-5-ethyl-N2-[4-(4-methyl-1-piperazinyl)phenyl]-2,4-pyrimidinediamine] | 724 nM
CCc1cnc(Nc2ccc(N3CCC(F)(F)CC3)cc2)nc1Nc1ccc(CNS(=O)(=O)C2CC2)cc1 [II-87, N4-[4-(N-Cyclopropylsulfonylamino)methylphenyl]-N2-[4-(4,4-difluoro-1-piperidinyl)phenyl]-5-ethyl-2,4-pyrimidinediamine] | 5270 nM
CCc1cnc(Nc2ccc(C3CCN(C)CC3)cc2)nc1Nc1ccc(CNS(=O)(=O)C2CC2)cc1 [II-88, N4-[4-(N-Cyclopropylsulfonylamino)methylphenyl]-5-ethyl-N2-[4-(1-methyl-4-piperidinyl)pheny]-2,4-pyrimidinediamine] | 833 nM
CCc1cnc(Nc2ccc(N3CCN(CC)CC3)cc2)nc1Nc1ccc(CNS(=O)(=O)C2CC2)cc1 [II-89, N4-[4-(N-Cyclopropylsulfonylamino)methylphenyl]-5-ethyl-N2-[4-(4-ethyl-1-piperazinyl)phenyl]-2,4-pyrimidinediamine] | 674 nM
COc1cc(Nc2ncc(Cl)c(Nc3ccc(CNS(=O)(=O)N(C)C)cc3)n2)cc(C)c1OC [II-91, 5-Chloro-N2-(3,4-dimethoxy-5-methylphenyl)-N4-[(4-(dimethylamino)sulfonylamino)methylphenyl]-2,4-pyrimidinediamine] | 142 nM

From US8304422B2, “Compositions and methods for inhibition of the JAK pathway” (Rigel Pharmaceuticals, Inc., priority 2007, dated 2012)
